The values that follow are results of earlier work, collected in PMC6413085, “A Validated HPLC-MS/MS Assay for 14-O-[(4,6-Diaminopyrimidine-2-yl)thioacetyl] Mutilin in Biological Samples and Its Pharmacokinetic, Distribution and Excretion via Urine and Feces in Rats” (Molecules, 2019).

Read-outs that look alike come from different tables or passages of the source.

The conditions of series [1]: rat, in vivo, cited from earlier work; for time at which Cmax was achieved: 5 mg/kg.
The conditions of series [2]: rabbit, in vivo, iv, 25 mg/kg; cited from earlier work.
For series [3] the following is noted: in vivo; cited from earlier work.

For `C=C[C@]1(C)C[C@@H](OC(=O)CSc2nnc(N)s2)[C@]2(C)[C@H](C)CC[C@]3(CCC(=O)[C@H]32)[C@@H](C)[C@@H]1O` [14-O-[(2-amino-1,3,4-thiadiazole-5-yl)thioacetyl] mutilin], the “time at which Cmax was achieved” value in series [1] (iv) is recorded as 0.08 h. Besides, in series [1] (po), the “time at which Cmax was achieved” value is reported as 0.75 h and the “absolute bioavailability following oral administration” value is 35.81%.

As to `C=CC1(C)CC(OC(=O)CSc2nc(N)cc(O)n2)C2(C)C(C)CCC3(CCC(=O)C32)C(C)C1O` (stereo not drawn) [14-O-[(4-amino-6-hydroxy-pyrimidine-2-yl)thioacetyl] mutilin], the “time at which Cmax was achieved” value in series [2] is given as 0.08 h.

With `C=C[C@]1(C)C[C@@H](OC(=O)CSC(C)(C)CNC(=O)[C@H](N)C(C)C)[C@]2(C)[C@H](C)CC[C@]3(CCC(=O)[C@H]32)[C@@H](C)[C@@H]1O` [valnemulin], the “absolute bioavailability following oral administration” value is 36.68% in series [3] and 100% in series [1] (po).
